Here are results for 56 molecules from US20100120789A1, “Compound” (priority 2005, published 2010).

Chain of Human 11β-HSD1 (P28845 whole entry): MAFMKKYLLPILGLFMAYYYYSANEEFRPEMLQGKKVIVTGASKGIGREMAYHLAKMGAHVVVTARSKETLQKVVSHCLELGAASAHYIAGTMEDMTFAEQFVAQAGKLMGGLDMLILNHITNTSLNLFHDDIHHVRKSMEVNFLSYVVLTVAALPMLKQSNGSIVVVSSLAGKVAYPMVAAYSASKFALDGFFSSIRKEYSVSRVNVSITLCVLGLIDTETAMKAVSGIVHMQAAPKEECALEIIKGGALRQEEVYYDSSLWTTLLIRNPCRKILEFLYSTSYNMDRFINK

The first series addresses Human 11β-HSD1 (Homo sapiens, UniProt P28845). The series is described as follows: 11β-HSD1 HEK assay (whole HEK 293 cells stably transfected with HSD11B1, SPA). Type of series: cell-based. Also noted: expressed in transfected cells; host or cells: HEK 293. Conditions: HEK293, read-out: % INHIBITION of Human 11 β-HSD1 at 10 μM (HEK). How it is done: 11β-HSD1 HEK Assay Protocol (Cell Based Assay)
11β-HSD1 activity is measured in whole HEK 293 cells stably transfected with the HSD11B1 gene. Cells are incubated in 96-well microplates in the presence of tritiated substrate. Enzyme activity is determined by measuring the amount of tritated product by scintillation proximity assay (SPA). Assay plates contain internal high and low controls to allow calculation of percentage inhibition.
2. When the cells are 80% confluent the medium is removed from each well. 100 μl fresh, serum-free, medium containing ^3H-cortisone and test compound in 1% DMSO is added to each well*. Control wells are also dispensed.
3. The plate is incubated at […] for the required time period.
4. 50 μl of media is removed from each well and transferred to a microplate containing 100 μl of a pre-incubated mixture of anti-cortisol antibody and SPA bead. The mixture is incubated with gentle shaking until equilibrium is reached, before transferring to a scintillation counter to establish the enzyme activity in each sample.
10 μl of compound is dispensed into each well of a 96-well microplate in 10% DMSO at 100 μM concentration. 90 μl media containing ^3H-cortisone is added to each well. The compound/media/substrate mixture is then transferred to the assay plate containing the cells.
Take `Cc1c(Cl)cccc1S(=O)(=O)NC12CC3CC(CC(C3)C1)C2` [compound 1343]: the inhibition (usually the percentage by which the read-out fell short of the control) at 10 µM fell in the range of 20 to 60%.

Turning to `CC(C(=O)NCc1cccs1)(c1ccccc1)c1ccccc1` [compound 1640], the inhibition at 10 µM fell in the range of 20 to 60%.

As to `CN(Cc1cccs1)C(=O)[C@H]1CC2C=CC1C2` (some centres unmarked) [compound 1709], the inhibition at 10 µM was over 60%.

`O=C(NCCc1cccs1)[C@@H]1CC2C=CC1C2` (some centres unmarked) [compound 1708]: the inhibition at 10 µM was in the range of 20 to 60%.

For the molecule `O=S(=O)(NC12CC3CC(CC(C3)C1)C2)c1cc(Cl)ccc1Cl` [compound 1342], the inhibition at 10 µM was in the range of 20 to 60%.

As for `O=C(COCc1cccs1)C12CC3CC(CC(C3)C1)C2` [compound 1692], the inhibition at 10 µM was over 60%.

For `CC1(C(=O)NCc2cccs2)CCCCC1` [compound 1642], the inhibition at 10 µM lay within 20 to 60%.

Consider `O=C(NCc1cc2ccccc2s1)C12CC3CC(CC(C3)C1)C2` [compound 1688], for which the inhibition at 10 µM is under 20%.

For the molecule `CC12CC3CC(C)(C1)CC(C(=O)NCCc1cccs1)(C3)C2` [compound 1672], the inhibition at 10 µM is over 60%.

Take `O=C(NCc1cccs1)C12CC3CC(CC1C3)C2` [compound 1648]: the inhibition at 10 µM is over 60%.

For the molecule `CN(Cc1cccs1)C(=O)C1(C)CCCCC1` [compound 1699], the inhibition at 10 µM was over 60%.

Consider `CN(Cc1cccs1)C(=O)C1(c2ccc(Cl)cc2)CCCC1` [compound 1696], for which the inhibition at 10 µM is over 60%.

For the molecule `CC(C)(C)CC(=O)NCCc1cccs1` [compound 1652], the inhibition at 10 µM lay in the range of 20 to 60%.

As for `O=C(CC12CC3CC(CC(C3)C1)C2)NCc1cc2ccccc2s1` [compound 1690], the inhibition at 10 µM was in the range of 20 to 60%.

For `O=C(CC12CC3CC(CC(C3)C1)C2)NCc1csc2ccccc12` [compound 1691], the inhibition at 10 µM lay within 20 to 60%.

In the case of `O=C(NCCc1cccs1)[C@H]1CC2C=CC1C2` (some centres unmarked) [compound 1707], the inhibition at 10 µM is 20 to 60%.

The series is the same for the next values; noted with them: HEK293; read-out: IC50 (nM) Inhibition of Human 11β-HSD1 (HEK293).
`CC(C)NC(=O)c1cccc(OCC(=O)C23CC4CC(CC(C4)C2)C3)c1` [Compound 12]: the IC50 (commonly the concentration that gives 50% inhibition) amounted to 1220 nM.

Regarding `NC(=O)Cc1ccc(OCC(=O)C23CC4CC(CC(C4)C2)C3)cc1` [Compound 15], the 50% inhibitory concentration (IC50) turned out to be 204 nM.

For `CNC(=O)Cc1ccc(OCC(=O)C23CC4CC(CC(C4)C2)C3)cc1` [Compound 13], the IC50 came to 94 nM.

Test system in a further series: not given
Experiment: not given
Conditions: not given
With `CN(Cc1cn(C23CC4CC(CC(C4)C2)C3)nn1)Cc1cccs1`, the melting point (commonly the temperature of the solid-liquid transition) was in the range of 66 to 68 °C.

In turn, `O=C(NCc1ccco1)c1ccc(OCC(=O)C23CC4CC(CC(C4)C2)C3)cc1` registered a melting point of 162.2 °C.

Molecule `CCCc1ccc(S(=O)(=O)NCC23CC4CC(CC(C4)C2)C3)cc1` [STX1368, N-Adamantan-1-ylmethyl-4-propyl-benzenesulfonamide] came in with a melting point of 148 to 149 °C.

On to `COc1cc2c(cc1O)CCN(C(=O)CC13CC4CC(CC(C4)C1)C3)C2`, for which the melting point is 169 to 172 °C.

As to `CC(=O)Nc1ccc([S+]([O-])CC(=O)C23CC4CC(CC(C4)C2)C3)cc1` (centres unmarked), the melting point lay in the range of 173.5 to 175.5 °C.

The molecule `CN(Cc1cccnc1)C(=O)CC12CC3CC(CC(C3)C1)C2` [STX2409, 2-Adamantan-1-yl-N-methyl-N-pyridin-3-ylmethyl-acetamide] registered a melting point of 67 to 68.5 °C.

`O=C(NCc1cccs1)C12CC3CC(CC(C3)C1)C2` [STX1374, Adamantane-1-carboxylic acid (thiophen-2-ylmethyl)-amide] yielded a melting point of 155 to 155.5 °C.

In turn, `CC12CC3CC(C)(C1)CC(C(=O)NCc1cccs1)(C3)C2` [STX1671, 3,5-Dimethyl-adamantane-1-carboxylic acid(thiophen-2-ylmethyl)-amide] returned a melting point of 101 to 103 °C.

`COc1cc2c(cc1OC)CN(C(=O)CC13CC4CC(CC(C4)C1)C3)CC2` returned a melting point of 165 to 167 °C.

As to `Cc1ccc(CNC(=O)C23CC4CC(CC(C4)C2)C3)cc1`, the melting point fell in the range of 137 to 140 °C.

Molecule `CN(Cc1cc(Br)cs1)C(=O)CC12CC3CC(CC(C3)C1)C2` [STX2396, 2-Adamantan-1-yl-N-(4-bromo-thiophen-2-ylmethyl)-N-methyl-acetamide] showed a melting point of 86 to 88.5 °C.

In turn, `O=C(NC12CC3CC(CC(C3)C1)C2)OCCc1cccs1` [STX1712, Adamantan-1-yl-carbamic acid 2-thiophen-2-yl-ethyl ester] displayed a melting point of 67 to 69 °C.

`O=C(NCCc1cccs1)C12CC3CC(CC1C3)C2` [STX1656, Hexahydro-2,5-methano-pentalene-3a-carboxylic acid(2-thiophen-2-yl-ethyl)-amide] came in with a melting point of 113 to 114 °C.

As for `O=C(NCCc1cccs1)[C@H]1CC2C=CC1C2` (stereo partly drawn) [STX1707, Bicyclo[2.2.1]hept-5-ene-2-carboxylic acid(2-thiophen-2-yl-ethyl)-amide (exo)], the melting point fell in the range of 71 to 72 °C.

The molecule `O=C(O)Cc1ccc(OCC(=O)C23CC4CC(CC(C4)C2)C3)cc1` [STX2364, [4-(2-Adamantan-1-yl-2-oxo-ethoxy)-phenyl]-acetic acid] returned a melting point of 153.4 °C.

`CC(C)N(Cc1cccs1)C(=O)C12CC3CC(CC(C3)C1)C2` gave a melting point of 156 to 158 °C.

The molecule `Cc1ccc(CN(C)C(=O)C23CC4CC(CC(C4)C2)C3)cc1` [STX2003, Adamantane-1-carboxylic acid methyl-(4-methyl-benzyl)-amide] came in with a melting point of 93 to 95 °C.

`COc1ccc(OCc2cn(C34CC5CC(CC(C5)C3)C4)nn2)cc1OC` [STX1893, 1-Adamantan-1-yl-4-(3,4-dimethoxy-phenoxymethyl)-1H-[1,2,3]triazole]: the melting point was in the range of 108 to 112 °C.

`O=C(Nc1nccs1)C12CC3CC(CC(C3)C1)C2` [STX2401, Adamantane-1-carboxylic acid thiazol-2-ylamide] came in with a melting point of 200 to 201 °C.

`O=C(NC12CC3CC(CC(C3)C1)C2)OCc1cccs1` [STX1711, Adamantan-1-yl-carbamic acid thiophen-2-ylmethyl ester] yielded a melting point of 66 to 68 °C.

Turning to `O=C(CC12CC3CC(CC(C3)C1)C2)N1CCN(c2ccc(Cl)cc2)CC1` [STX2404, 2-Adamantan-1-yl-1-[4-(4-chloro-phenyl)-piperazin-1-yl]-ethanone], the melting point was 112.5 to 115 °C.

For the molecule `COC(=O)c1ccc(OCC(=O)C23CC4CC(CC(C4)C2)C3)cc1`, the melting point was 128.7 °C.

`[O-][S+](Cc1cn(C23CC4CC(CC(C4)C2)C3)nn1)c1cc(Cl)ccc1Cl` (centres unmarked) [STX1892, 1-Adamantan-1-yl-4-(2,5-dichloro-benzenesulfinylmethyl)-1H-[1,2,3]triazole] yielded a melting point of 125 to 128 °C.

For `O=S(=O)(NCC12CC3CC(CC(C3)C1)C2)c1ccc(-c2ccccc2)cc1` [STX1371, Biphenyl-4-sulfonic acid (adamantan-1-ylmethyl)-amide], the melting point was in the range of 188 to 189.5 °C.

On to `O=C(N(Cc1cccs1)CC1CCCCC1)C12CC3CC(CC(C3)C1)C2`, for which the melting point was 112 to 115.5 °C.

Molecule `Cc1cccc(CN2CCN(C(=O)CC34CC5CC(CC(C5)C3)C4)CC2)c1` [STX2403, 2-Adamantan-1-yl-1-[4-(3-methyl-benzyl)-piperazin-1-yl]-ethanone] yielded a melting point of 86 to 88 °C.

Molecule `O=C(Nc1cccnc1)C12CC3CC(CC(C3)C1)C2` [STX2399, Adamantane-1-carboxylic acid pyridin-3-ylamide] had a melting point of 129 to 131 °C.

In turn, `CC(=O)Nc1ccc(NCC(=O)C23CC4CC(CC(C4)C2)C3)cc1` [STX2241, N-[4-(2-Adamantan-1-yl-2-oxo-ethylamino)-phenyl]acetamide] registered a melting point of 156 to 158 °C.

In the case of `O=C(C[S+]([O-])c1cccs1)C12CC3CC(CC(C3)C1)C2` (centres unmarked) [STX1930, 1-Adamantan-1-yl-2-(thiophene-2-sulfinyl)-ethanone], the melting point is 114 to 115.5 °C.

`CCc1ccc(CN(C)C(=O)CC23CC4CC(CC(C4)C2)C3)s1` [STX2394, 2-Adamantan-1-yl-N-(5-ethyl-thiophen-2-ylmethyl)-N-methyl-acetamide] showed a melting point of 54 to 55 °C.

With `CCCc1ccc(S(=O)(=O)NC23CC4CC(CC(C4)C2)C3)cc1` [STX1341, N-Adamantan-1-yl-4-propyl-benzenesulfonamide], the melting point is 178 to 178.5 °C.

With `O=C(N1CCN(Cc2ccc(Cl)cc2)CC1)C12CC3CC(CC(C3)C1)C2`, the melting point lay within 141.5 to 143 °C.

For the molecule `O=C(Cc1ccc(OCC(=O)C23CC4CC(CC(C4)C2)C3)cc1)Nc1ccccc1`, the melting point turned out to be 153.4 °C.

For `CN(CCc1ccccn1)C(=O)CC12CC3CC(CC(C3)C1)C2`, the melting point is 59 to 60 °C.

`CN(CCc1ccccn1)C(=O)C12CC3CC(CC(C3)C1)C2` [STX1887, Adamantane-1-carboxylic acid methyl-(2-pyridin-2-yl-ethyl)-amide] registered a melting point of 64 to 65 °C.

Molecule `CN(Cc1cccs1)C(=O)CS(=O)(=O)C12CC3CC(CC(C3)C1)C2` gave a melting point of 120 to 122 °C.

For the molecule `Cc1nc2cc(NCC(=O)C(C)(C)C)ccc2s1` [STX1740, 3,3-Dimethyl-1-(2-methyl-benzothiazol-5-ylamino)-butan-2-one], the melting point was in the range of 108 to 111 °C.
